{"source": "patent US11117888B2", "about": "“Irreversible inhibitors of pyruvate kinase M2 and the use thereof” (China Medical University, priority 2020, dated 2021)", "key": {"PC-9 cells": {"system": "PC-9 cells", "experiment": "Seahorse Glycolysis Stress assay (ECAR and OCR)", "assay_type": "cell-based, human", "text": "In light of the role of PKM2 in promoting glycolysis, we hypothesized that the antitumor activity of compound 1 might, in part, be attributable to its ability to reverse the glycolytic phenotype (i.e., Warburg effect) of cancer cells. Accordingly, we examined the effects of compound 1 on the extracellular acidification rate (ECAR) and cellular oxygen consumption rate (OCR) in PC-9 cells, which represent key bioenergetic parameters of glycolysis (lactate production) and mitochondrial respiration (oxidative phosphorylation), respectively, using a commercial kit (Agilent Seahorse XF Glycolysis Stress Test Kit). In the ECAR measurement, glucose, oligomycin (an ATP synthetase inhibitor), and 2-deoxyglucose (2-DG; a hexokinase/glycolysis inhibitor) were added in tandem to glucose-starved cells at different time intervals to activate or interfere with glycolysis, thereby allowing the calculation of the glycolytic flux and glycolytic capacity. […] Meanwhile, the OCR response, a parameter for oxidative phosphorylation, was concurrently monitored. […] It is noteworthy that when glucose was added to the basal medium, there was a decrease in the OCR in the control group. This phenomenon was previously referred to as the “Crabtree effect”, i.e., when glucose is added to activate glycolysis, it might be more favorable for cells to generate ATP through substrate-level phosphorylation, thereby reducing the need of oxidative phosphorylation. However, this glucose-induced drop in OCR became less apparent in the presence of compound 1, which might be associated with the ability of compound 1 to block glycolysis.\nGlycolysis Stress assay. Extracellular acidification rate (ECAR) and oxygen consumption rate (OCR) were measured using a Seahorse Bioscience XF96 extracellular flux analyzer (Seahorse Bioscience) according to the manufacturer's protocol. PC-9 ells (5×10^4) were seeded in 96 Seahorse XF Cell Culture Microplate with normal growth medium 24 hours before treatment with compounds. The cells were treated with DMSO or compound 1 for 4 hours at 37° C. under 5% CO2 atmosphere. […]"}, "H1975 lung cancer cells": {"system": "H1975 lung cancer cells", "experiment": "MTT cell viability assay, H1975", "assay_type": "cell-based", "details": "Homo sapiens, NCI-H1975, H1975 (mutant EGFR), 24 hours", "text": "(§1) Cell lines, cell culture, biochemical reagents, and antibodies. MiaPaCa-2, AsPC-1, and Panc-1 human pancreatic cancer cells, MCF-7 and MDA-MB-231 breast cancer cells, SCC4 and SCC2059 oral cancer cells, PC-3 and LNCaP prostate cancer cells, H157, H460, H1975, PC-9 and H1650 lung cancer cells were obtained from the American Type Culture Collection (ATCC, Manassas, Va.). All these cells were maintained in recommended growth medium (RPMI 1640 or DMEM) supplemented with 10% fetal bovine serum (FBS) (Invitrogen, Carlsbad, Calif., USA) and antibiotics at 37° C. in a humidified incubator containing 5% CO2. For SILAC experiments, PC-9 cells were grown in SILAC DMEM medium (Thermo Fisher) supplemented with 10% dialyzed FBS and 100 μg/mL each of unlabeled L-arginine and L-lysine (light medium) or ^13C/^15N stable isotope-labeled L-arginine and L-lysine (heavy medium). […]\n(§2) Cell viability assays. Drug effects on cell viability was assessed by 3-(4,5-dimethylthiazol-2-yl)-2,5-diphenyltetrazolium bromide ([…]) assays. […] The medium was then removed from each well and replaced with DMSO to dissolve the reduced MTT dye for subsequent colorimetric measurement of absorbance at 560 nm. Cell viabilities are expressed as percentages of viable cells relative to the corresponding vehicle-treated control group."}, "H157 lung cancer cells": {"system": "H157 lung cancer cells", "experiment": "MTT cell viability assay, H157", "assay_type": "cell-based", "details": "Homo sapiens, NCI-H157, H157 (wild type EGFR), 24 hours", "text": "as §1, §2"}, "[1]": {"system": "PC-3 prostate cancer cells", "experiment": "MTT cell viability assay, PC-3", "assay_type": "cell-based", "details": "Homo sapiens; PC-3, MTT, 24 hours", "text": "as §1, §2"}, "H460 lung cancer cells": {"system": "H460 lung cancer cells", "experiment": "MTT cell viability assay, H460", "assay_type": "cell-based", "details": "Homo sapiens, NCI-H460, H460 (wild type EGFR), 24 hours", "text": "as §1, §2"}, "PC-9 lung cancer cells": {"system": "PC-9 lung cancer cells", "experiment": "MTT cell viability assay, PC-9", "assay_type": "cell-based", "details": "Homo sapiens, PC-9 (mutant EGFR), 24 hours", "text": "as §1, §2"}, "[2]": {"experiment": "Incubation with free cysteine, mass spectral analysis", "assay_type": "physicochemical", "details": "stoichiometric amount of free cysteine in solution", "text": "In an effort to develop irreversible kinase inhibitors, we chose the core structures of several published kinase inhibitors to couple with a propiolyl moiety, which could act as an electrophilic warhead to irreversibly modify the cysteine residues of target proteins."}, "[3]": {"system": "246 different kinases (activity) and 143 different kinases (substrate binding)", "experiment": "Kinase profiling analysis (Life Technologies' SelectScreen Profiling Service)", "assay_type": "biochemical", "details": "500 nM; activity of 246 kinases, substrate binding to 143 kinases", "protocol": "To shed light onto its potential target, compound 1 was submitted to a commercial vendor for kinase profiling analysis (Life Technologies' SelectScreen Profiling Service), in which the inhibitory effects of compound 1 at 500 nM on the activity of 246 different kinases as well as substrate binding to 143 different kinases were tested."}}}
{"compound": "C#CC(=O)Nc1ccc(-n2nc(CCC(=O)NC)cc2-c2ccc(-c3ccc(C(F)(F)F)cc3)cc2)cc1", "note": "[compound 1, N-(4-(3-(3-(Methylamino)-3-oxopropyl)-5-(4′-(trifluoromethyl)-[1,1′-biphenyl]-4-yl)-1H-pyrazol-1-yl)phenyl)propiolamide]", "values": [{"measurement": "glycolytic acidification (ECAR)", "setting": "PC-9 cells; 0.25-1 μM, 4 hours", "value": "suppressed the glycolytic acidification in a concentration-dependent manner"}, {"measurement": "non-glycolytic acidification (ECAR)", "setting": "PC-9 cells; 0.25-1 μM, 4 hours", "value": "no appreciable effect"}, {"measurement": "oxygen consumption rate (OCR), basal state", "setting": "PC-9 cells; prior to glucose supplementation, relative to DMSO", "value": "increase oxygen consumption in the basal state"}, {"measurement": "IC50", "setting": "H1975 lung cancer cells", "value": 1000, "unit": "nM"}, {"measurement": "IC50", "setting": "H157 lung cancer cells", "value": "> 2000", "unit": "nM"}, {"measurement": "IC50", "setting": "[1]", "value": 600, "unit": "nM"}, {"measurement": "IC50", "setting": "H460 lung cancer cells", "value": 1500, "unit": "nM"}, {"measurement": "IC50", "setting": "PC-9 lung cancer cells", "value": 500, "unit": "nM"}, {"measurement": "adduct formation with free cysteine", "setting": "[2]", "value": "formation of a covalent 1-cysteine adduct"}, {"measurement": "inhibition of kinases in profiling panel", "setting": "[3]", "value": "none of the kinases examined was effectively inhibited"}]}
